Data: US12421212B2, “Substituted benzenecarboxamides as IL-17A modulators” (DiCE Alpha, Inc., priority 2019, dated 2025)

Target: T1, IL-17A/A (Homo sapiens, UniProt Q16552)
T1 construct: purchased Genscript Z03228
T1 sequence (Q16552 24-155): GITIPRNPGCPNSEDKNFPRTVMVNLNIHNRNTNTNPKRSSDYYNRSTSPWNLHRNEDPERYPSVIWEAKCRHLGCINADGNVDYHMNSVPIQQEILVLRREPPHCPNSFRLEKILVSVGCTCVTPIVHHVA
Test: IL-17A/A HEK-Blue Cell Assay
Assay type: cell-based
Details: HEK-Blue IL-17A reporter cell line, SEAP readout at A630, 20 hours incubation with IL-17A/A, top concentration 10 uM, 1 uM or 0.3 uM; for IC50: read-out: IL-17A/A inhibition (pIC50) (converted)

SMILES | IC50 [nM] | IL-17A/A inhibition (pIC50)
CCC(=O)N[C@@H](C(=O)N1CCN(C)CC1)[C@@H](C)c1ccc(NC(=O)[C@@H](NC(=O)c2ccnn2CC)C2CCC(C)(C)CC2)c(F)c1 [Compound 296] | 10 to 100 | –
CCc1nonc1C(=O)N[C@H](C(=O)Nc1ccc([C@H](C)[C@@H](NC(=O)c2nonc2C)C(=O)N2CCN(C)CC2)cc1F)[C@H]1CC[C@H](C)CC1 [Compound 489] | 10 to 100 | –
CCC(=O)N[C@@H](C(=O)N1CCN(C)CC1)[C@@H](C)c1ccc(NC(=O)[C@@H](NC(=O)c2cnon2)[C@H]2CC[C@H](C)CC2)c(F)c1 [Compound 547] | – | X3b (compounds were evaluated up to 0.3 uM and inhibited activity at 0.3 uM by less than 20%)
CCC(=O)N[C@@H](C(=O)N1CC(n2ccnc2)C1)[C@@H](C)c1ccc(NC(=O)[C@@H](NC(=O)c2nonc2CC)[C@H]2CC[C@H](C)CC2)c(F)c1 [Compound 580] | – | X3a (compounds were evaluated up to 0.3 uM and did not inhibit activity by >80%, however they showed some activity at 0.3 uM (less than 80% and more than 20%))
CCc1nonc1C(=O)N[C@H](C(=O)Nc1ccc([C@H](C)[C@@H](NC(=O)[C@H](C)CC(=O)O)C(=O)N2CCN(C)CC2)cc1F)[C@H]1CC[C@H](C)CC1 [Compound 493] | 10 to 100 | –
CCC(=O)N[C@@H](C(=O)N1CCN(C)CC1)[C@@H](C)c1ccc(NC(=O)C(NC(=O)c2ccnn2CC)C(CC)c2ccc(Cl)cc2)c(F)c1 (single isomer, unassigned) [Compound 563] | – | X2b (compounds were evaluated up to 1 uM and inhibited activity at 1 uM by less than 20%)
CCC(=O)N[C@@H](C(=O)N1CCN(C)CC1)[C@@H](C)c1ccc(NC(=O)C(NC(=O)C(F)(F)c2cnc(OC)nc2)C2CCCCCC2)c(F)c1 (stereo partly drawn) [Compound 418] | 10 to 100 | –
CCC(=O)N[C@H](Cc1ccc(NC(=O)[C@@H](NC(=O)c2cnc(C(=O)NC)s2)C2CCCCC2)c(F)c1)C(=O)N1CCN(C)CC1 [Compound 699] | – | X2b (compounds were evaluated up to 1 uM and inhibited activity at 1 uM by less than 20%)
CCC(=O)N[C@@H](C(=O)N1CCN(C)CC1)[C@@H](C)c1ccc(NC(=O)[C@@H](NC(=O)c2ccnn2CC)C2CCC(F)(F)CC2)c(F)c1 [Compound 240] | 10 to 100 | –
CCC(=O)N[C@H](Cc1ccc(NC(=O)[C@@H](NC(=O)C(F)(F)c2cccc(OC)c2)C2CCCCC2)c(F)c1)C(=O)N1CCN(C)CC1 [Compound 207] | 100 to 10000 | –
CCn1nccc1C(=O)N[C@H](C(=O)Nc1ccc([C@H](C)[C@@H](NC(=O)COC)C(=O)N2CCN(C)CC2)cc1F)[C@H]1CC[C@H](C)CC1 [Compound 478] | 10 to 100 | –
CCC(=O)N[C@@H](C(=O)N1CCN(C)CC1)[C@@H](C)c1ccc(NC(=O)[C@@H](NC(=O)c2nonc2CC)[C@H](C)[C@H]2CC[C@H](C)CC2)c(F)c1 [Compound 586] | < 10 | –
CCC(=O)N[C@@H](C(=O)N1CCN(C)CC1)[C@@H](C)c1ccc(NC(=O)C(NC(=O)c2ccnn2CC)C(C)C2CCC(F)(F)CC2)c(F)c1 (single isomer, unassigned) [Compound 606] | 10 to 100 | –
CCn1nccc1C(=O)N[C@H](C(=O)Nc1ccc([C@H](C)[C@@H](NC(=O)CC(F)(F)F)C(=O)N2CCN(C)CC2)cc1F)C1CCCCC1 [Compound 643] | 100 to 10000 | –
CCC(=O)N[C@H](Cc1ccc(NC(=O)[C@@H](NC(=O)c2ccnn2CC)C2CCCCC2)c(F)c1)C(=O)N1CCN(Cc2ccccc2)CC1 [Compound 325] | 10 to 100 | –
CCC(=O)N[C@@H](C(=O)N1CCC(C)CC1)[C@@H](C)c1ccc(NC(=O)[C@@H](NC(=O)c2ccnn2CC)[C@H]2CC[C@H](C)CC2)c(F)c1 [Compound 370] | 10 to 100 | –
CCC(=O)N[C@@H](C(=O)N1CCS(=O)(=O)CC1)[C@@H](C)c1ccc(NC(=O)[C@@H](NC(=O)C(F)(F)c2cccc(C#N)c2)C2CCCCC2)c(F)c1 [Compound 365] | 10 to 100 | –
CCC(=O)N[C@H](Cc1ccc(NC(=O)[C@@H](NC(=O)c2coc3c2C(=O)NCC3)C2CCCCC2)c(F)c1)C(=O)N1CCN(C)CC1 [Compound 708] | – | X2b (compounds were evaluated up to 1 uM and inhibited activity at 1 uM by less than 20%)
CCn1nccc1C(=O)N[C@H](C(=O)Nc1ccc([C@H](C)[C@@H](NS(=O)(=O)CC)C(=O)N2CCN(C)CC2)cc1F)C1CCCCC1 [Compound 313] | 10 to 100 | –
CC(C)n1nccc1C(=O)N[C@H](C(=O)Nc1ccc([C@H](C)[C@@H](NC(=O)c2ccnn2C2CC2)C(=O)N2CCN(C)CC2)cc1F)[C@H]1CC[C@H](C)CC1 [Compound 399] | < 10 | –
CCC(=O)N[C@H](C(=O)N1CCN(C)CC1)[C@H](C)c1ccc(NC(=O)[C@@H](NC(=O)c2ccnn2CC)[C@H]2CC[C@H](C)CC2)c(F)c1 [Compound 542] | – | X3b (compounds were evaluated up to 0.3 uM and inhibited activity at 0.3 uM by less than 20%)
CCC(=O)N[C@H](Cc1ccc(NC(=O)[C@@H](NC(=O)c2ccnn2CC)c2ccccc2)c(F)c1)C(=O)N1CCN(C)CC1 [Compound 775] | – | X1b (compounds were evaluated up to 10 uM and inhibited activity at 10 uM by less than 20%)
C[C@@H](c1ccc(NC(=O)[C@@H](NC(=O)C(F)(F)c2cccc(C#N)c2)C2CCCCC2)cc1)[C@@H](NC(=O)c1cnns1)C(=O)N1CCN(C)CC1 [Compound 301] | < 10 | –
CCc1nonc1C(=O)N[C@H](C(=O)Nc1ccc([C@H](C)C(NC(=O)C(C)F)C(=O)N2CCN(C)[C@H](C)C2)cc1F)[C@H]1CC[C@H](C)CC1 (single isomer, unassigned) [Compound 599] | < 10 | –
CCC(=O)N[C@H](Cc1ccc(NC(=O)[C@H](Cc2ccc3ccccc3c2)NC(=O)c2ccnn2CC)c(F)c1)C(=O)N1CCN(C)CC1 [Compound 724] | – | X2b (compounds were evaluated up to 1 uM and inhibited activity at 1 uM by less than 20%)
CCC(=O)N[C@@H](C(=O)N1CCN(C)CC1)[C@@H](C)c1ccc(NC(=O)C(NC(=O)c2nonc2CC)C(OC)c2ccc(F)cc2)c(F)c1 (single isomer, unassigned) [Compound 609] | – | X2b (compounds were evaluated up to 1 uM and inhibited activity at 1 uM by less than 20%)

Further lines, with some results ahead:

IC50 [nM] | SMILES | IL-17A/A inhibition (pIC50)
100 to 10000 | CCn1nccc1C(=O)N[C@H](C(=O)Nc1ccc([C@H](C)[C@@H](NC(=O)c2ccc(C)s2)C(=O)N2CCN(C)CC2)cc1F)C1CCCCC1 [Compound 635] | –
< 10 | CCC(=O)N[C@@H](C(=O)NCC1CCC1)[C@@H](C)c1ccc(NC(=O)[C@@H](NC(=O)c2ccnn2CC)C2CCCCCC2)c(F)c1 [Compound 538] | –
< 10 | CCC(=O)N[C@@H](C(=O)N1CCN(C)CC1)[C@@H](C)c1ccc(NC(=O)[C@@H](NC(=O)c2conc2C2CC2)C2CCCCCC2)c(F)c1 [Compound 269] | –
10 to 100 | CCC(=O)N[C@@H](C(=O)N1CCN(C)CC1)[C@@H](C)c1ccc(NC(=O)C(NC(=O)c2ccnn2CC)C(CC)c2ccccc2)c(F)c1 (stereo partly drawn) [Compound 293] | –
10 to 100 | CCC(=O)N[C@@H](C(=O)N1CCN(C)CC1)[C@@H](CC)c1ccc(NC(=O)[C@@H](NC(=O)c2ccnn2CC)C2CCCCCC2)cc1 [Compound 319] | –
100 to 10000 | CCC(=O)N[C@H](Cc1ccc(NC(=O)[C@@H](NC(=O)C(F)(F)c2ccc(OC)cc2)C2CCCCC2)c(F)c1)C(=O)N1CCN(C)CC1 [Compound 206] | –
10 to 100 | CCn1nccc1C(=O)N[C@H](C(=O)Nc1ccc([C@H](C)[C@@H](NC(=O)CC2CC2)C(=O)N2CCN(C)CC2)cc1F)[C@H]1CC[C@H](C)CC1 [Compound 396] | –
< 10 | CCC(=O)N[C@@H](C(=O)N1CCN(C)CC1)[C@@H](C)c1ccc(NC(=O)[C@@H](NC(=O)C(F)(F)c2cccc(C#N)c2)[C@H]2CC[C@H](C)CC2)c(F)c1 [Compound 282] | –
10 to 100 | CCC(=O)N[C@@H](C(=O)N1CCN(C)CC1)[C@@H](C)c1ccc(NC(=O)C(NC(=O)c2nonc2CC)C(CC)c2ccc(Cl)cc2)c(F)c1 (stereo partly drawn) [Compound 566] | –
< 10 | CCC(=O)N[C@@H](C(=O)N1CC(C(C)(C)O)C1)[C@@H](C)c1ccc(NC(=O)[C@@H](NC(=O)c2nonc2CC)[C@H]2CC[C@H](C)CC2)c(F)c1 [Compound 446] | –
< 10 | CCC(=O)N[C@@H](C(=O)N1CCN(C)C[C@@H]1C)[C@@H](C)c1ccc(NC(=O)[C@@H](NC(=O)c2ccnn2CC)[C@H]2CC[C@H](C)CC2)c(F)c1 [Compound 429] | –
< 10 | C[C@@H](c1ccc(NC(=O)[C@@H](NC(=O)C(F)(F)c2cccc(C#N)c2)C2CCCCCC2)c(F)c1)[C@@H](NC(=O)c1cnns1)C(=O)N1CCN(C)CC1 [Compound 391] | –
10 to 100 | CCC(=O)N[C@@H](C(=O)N1CCN(C)CC1)[C@@H](C)c1ccc(NC(=O)[C@@H](NC(=O)c2ccnn2C2COC2)[C@H]2CC[C@H](C)CC2)c(F)c1 [Compound 545] | –
10 to 100 | CCC(=O)N[C@@H](C(=O)N1CCN(C)CC1)[C@@H](C)c1ccc(NC(=O)[C@@H](NC(=O)c2conc2C2CC2)[C@H]2CC[C@H](C)CC2)c(F)c1 [Compound 279] | –
< 10 | CCc1nonc1C(=O)N[C@H](C(=O)Nc1ccc([C@H](C)[C@@H](NC(=O)CC2CC2)C(=O)N2CCN(C)[C@@H](C)C2)cc1F)[C@H]1CC[C@H](C)CC1 [Compound 506] | –
< 10 | CCc1nocc1C(=O)N[C@H](C(=O)Nc1ccc([C@H](C)[C@@H](NC(=O)c2cnns2)C(=O)N2CCN(C)CC2)cc1F)[C@H]1CC[C@H](C)CC1 [Compound 414] | –
10 to 100 | CCC(=O)N[C@@H](C(=O)N1CCN(C)CC1)[C@@H](C)c1ccc(NC(=O)[C@@H](NC(=O)C(F)(F)c2cccc(OC)c2)C2CCCCC2)c(F)c1 [Compound 243] | –
< 10 | CCC(=O)N[C@@H](C(=O)N1CCN(C)CC1)[C@@H](C)c1ccc(NC(=O)[C@@H](NC(=O)c2conc2C(C)C)C2CCCCCC2)c(F)c1 [Compound 268] | –
100 to 10000 | CCC(=O)N[C@@H](C(=O)N1CCN[C@H](C)C1)[C@@H](C)c1ccc(NC(=O)[C@@H](NC(=O)c2nonc2CC)[C@H]2CC[C@H](C)CC2)c(F)c1 [Compound 454] | –
